# pEC50: −log10 of the molar value. Where two headings read alike, the source gives them in different places.
# How the values were obtained:
# [1] = target: T1, human 5-hydroxytryptamine receptor 1A (5-HT1A) (Homo sapiens, UniProt P08908); assay: Human 5-HT1A functional FLIPR assay (agonist mode); assay type: cell-based; design: expressed in transfected cells; host or cells: Flp-In CHO; settings: for RFU@10 μM: normalized fluorescence reading (Fmax−Fmin) at 10 μM, curve fitting with activation (%)
# T1 sequence (P08908 1-422): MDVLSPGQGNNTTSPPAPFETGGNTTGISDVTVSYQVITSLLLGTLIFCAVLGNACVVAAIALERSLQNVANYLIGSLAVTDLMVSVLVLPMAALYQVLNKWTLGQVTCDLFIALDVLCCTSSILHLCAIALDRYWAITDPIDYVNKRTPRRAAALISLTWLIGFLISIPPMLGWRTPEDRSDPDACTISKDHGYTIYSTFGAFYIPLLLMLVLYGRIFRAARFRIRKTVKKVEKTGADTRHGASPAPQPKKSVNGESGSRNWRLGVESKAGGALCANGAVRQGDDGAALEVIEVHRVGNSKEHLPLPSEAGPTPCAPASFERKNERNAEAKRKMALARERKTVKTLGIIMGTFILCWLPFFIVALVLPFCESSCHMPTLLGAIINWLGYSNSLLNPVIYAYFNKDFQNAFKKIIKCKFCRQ
# Protocol: The potential excitatory effects of compounds targeting on 5-hydroxytryptamine receptor 1A (5-HT1A) under agonist mode was assessed.
# HTR1A&Gα15-CHO cells were cultured in DMEM/F12 medium containing 10% dialyzed FBS, 1× penicillin-streptomycin and 600 μg/mL Hygromycin B. The cells were passaged about three times a week, maintained between ˜30% to ˜90% confluence.
# 8. Cells were diluted to 4×10^5/mL with cell culture medium.
# 9. 30 μL/well cell suspensions were added into a 384-well cell plate (The cell density was 12,000 cells/well).
# (§1) 2. 10 μL of assay buffer (20 mM HEPES, in 1×HBSS, pH 7.4) was added to each well of the cell plate.
# 3. 2× dye solution was prepared following the manufacture's instruction of the FLIPR® Calcium 6 assay kit: • i. The dye was diluted with assay buffer. • ii. probenecid was added to the final concentration of 5 mM. • iii. Vortexed vigorously for 1-2 minutes, adjust pH to 7.4.
# 4. 10 μL of 2× dye solution was added to each well of the cell plate.
# (§2) 6. The plate was incubated at 37° C. for 2 hours followed by an additional 15-minute incubation at 25° C.
# 1. Serotonin was prepared to the concentration of 10 mM with DMSO, 3-folds serial dilutions were performed with DMSO.
# 2. Prepare the test compound to the concentration of 10 mM with DMSO, preform 3-folds serial dilutions with DMSO.
# 4. 90 nL/well of serial diluted compounds were transferred from source plate to a 384-well compound plate by using an Echo.
# 5. 30 μL/well of assay buffer was added to the compound plate.
# 2. 10 μL of 3× compounds were transferred from the compound plate to the cell plate by FLIPR.
# 3. The plate was read for 160 sec with 1 sec interval to obtain the data of agonist mode.
# (§3) 1. The normalized fluorescence reading (RFU) was calculated as shown below, wherein Fmax and Fmin stand for maximum and minimum of calcium signal during defined time window:
# 2. EC50 was calculated by fitting RFU against log of compound concentrations with Hill equation using XLfit.
# [2] = target: human 5-hydroxytryptamine receptor 2A (5-HT2A) (Homo sapiens, UniProt P28223); assay: Human 5-HT2A functional FLIPR assay (agonist mode); assay type: cell-based; design: expressed in transfected cells; host or cells: Flp-In-293 (HEK293); settings: for RFU@10 μM: normalized fluorescence reading (Fmax−Fmin) at 10 μM, curve fitting with activation (%)
# Chain of human 5-hydroxytryptamine receptor 2A (5-HT2A) (P28223 whole entry): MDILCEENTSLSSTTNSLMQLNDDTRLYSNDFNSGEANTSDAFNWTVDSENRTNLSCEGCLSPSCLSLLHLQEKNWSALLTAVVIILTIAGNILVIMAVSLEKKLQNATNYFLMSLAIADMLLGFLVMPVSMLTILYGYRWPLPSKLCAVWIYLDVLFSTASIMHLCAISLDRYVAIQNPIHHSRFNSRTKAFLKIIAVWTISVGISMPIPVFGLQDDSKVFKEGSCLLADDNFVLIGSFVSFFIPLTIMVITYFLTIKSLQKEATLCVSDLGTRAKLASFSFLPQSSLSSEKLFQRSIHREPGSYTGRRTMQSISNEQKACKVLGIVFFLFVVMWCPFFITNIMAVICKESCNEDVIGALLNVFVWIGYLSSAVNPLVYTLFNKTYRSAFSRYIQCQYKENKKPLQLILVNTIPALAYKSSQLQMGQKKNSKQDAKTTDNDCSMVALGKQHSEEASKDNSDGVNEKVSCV
# Protocol: The potential excitatory effects of compounds targeting human 5-hydroxytryptamine receptor 2A (5-HT2A) under agonist mode was assessed.
# HTR2A&Gα15-HEK293 cells were cultured in DMEM medium containing 10% dialyzed FBS and 1× penicillin-streptomycin, 100 μg/mL Hygromycin B and 300 μg/mL G418. The cells were passaged about three times a week, maintained between ˜30% to ˜90% confluence.
# 2. For induction, 1 μg/ml tetracycline (final concentration) was added to cell culture medium and incubated for 48 hours prior to seeding cells into plate at 37° C., 5% (v/v) CO2. The cell culture medium was removed from flask. Cells were washed with DP BS.
# 9. 30 μL/well cell suspensions added into a 384-well cell plate (The cell density was 20,000 cells/well).
# 10 μL of assay buffer (20 mM HEPES, in 1×HBSS, pH 7.4) was added to each well of the cell plate.
# 2× dye solution was prepared following the manual of the FLIPR® Calcium 6 Assay Kit: • i. The dye was diluted with assay buffer. • ii. Probenecid was added to the final concentration of 5 mM. • iii. Vortexed vigorously for 1-2 minutes.
# 4. 10 μL of 2× dye solution was added to each well of the cell plate
# as §2
# 1. Serotonin HCl was prepared to the concentration of 10 mM with DMSO.
# 2. The test compounds were prepared to the concentration of 10 mM with DMSO.
# 4. 3-folds serial dilutions were performed with DMSO.
# 5. 90 nL/well of serial diluted compounds was transferred from source plate to a 384-well compound plate by using an Echo.
# 6. 30 μL/well of assay buffer (20 mM HEPES in 1×HBSS, pH 7.4) was added to the compound plate.
# 2. 10 μL of 3× compounds transferred from the compound plate to the cell plate by FLIPR.
# 3. The plate was read for 160 sec with 1 sec interval and the data of agonist mode was obtained.
# as §3
# 2. EC50 by fitting RFU against log of compound concentrations with Hill equation was calculated using XLfit.
# as §1
# 3. 2× dye solution was prepared following the manual of the FLIPR® Calcium 6 Assay Kit: • i. The dye was diluted with assay buffer. • ii. Probenecid was added to the final concentration of 5 mM. • iii. Vortexed vigorously for 1-2 minutes.
# 1. The normalized fluorescence reading (RFU) was calculated as shown below, wherein Fmax and Fmin stand for maximum and minimum of calcium signal during defined time window: RFU=Fmax−Fmin
SMILES,RFU@10 μM [1],"pEC50 ([2]; FLIPR calcium, agonist mode, HTR2A&Gα15-HEK293 cells, read-out: h5-HT2A, EC50)",RFU@10 μM [2],pEC50 [1],pEC50 [2]
CN(C)CCc1c[nH]c2ccccc12 [DMT],204 RFU,6.79,"3,493 RFU",–,–
"CSc1ccc2[nH]cc(C[C@H]3CCCN3C)c2c1 [(R) I-1, (R)-3-((1-Methylpyrrolidin-2-yl)methyl)-5-(methylthio)-1H-indole]","3,355 RFU",–,"5,663 RFU",6.24,7.33
[2H]C([2H])(c1c[nH]c2ccc(OCCCCCN3C(=O)C4CCCCC4C3=O)cc12)[C@H]1CCCN1C([2H])([2H])[2H] (mixture of isomers) [Rac (R) I-248],601 RFU,–,"8,240 RFU",–,7.27
"COCCN1CCC[C@@H]1Cc1c[nH]c2ccc(OC)cc12 [(R) I-98, (R)-5-Methoxy-3-((1-(2-methoxyethyl)pyrrolidin-2-yl)methyl)-1H-indole]","1,666 RFU",–,"8,298 RFU",5.50,7.89
"[2H]C([2H])(c1c[nH]c2ccc(OCCCCCN3C(=O)c4ccccc4C3=O)cc12)[C@H]1CCCN1C([2H])([2H])[2H] [(R) I-245, (R)-2-(5-((3-((1-(Methyl-d3)pyrrolidin-2-yl)methyl-d2)-1H-indol-5-yl)oxy)pentyl)isoindoline-1,3-dione]",899 RFU,–,"8,322 RFU",–,6.92
"[2H]C([2H])(c1c[nH]c2ccc(OCCCCN3C(=O)c4ccccc4C3=O)cc12)[C@H]1CCCN1C([2H])([2H])[2H] [(R) I-244, (R)-2-(4-((3-((1-(Methyl-d3)pyrrolidin-2-yl)methyl-d2)-1H-indol-5-yl)oxy)butyl)isoindoline-1,3-dione]",616 RFU,–,"7,945 RFU",–,7.30
